From PubChem BioAssay AID1259407 (Chemical Carcinogenesis Research Information System (CCRIS), 2018)
Activity calls are given as the source filed them. How the calls were made is not given here.

System: CCRIS mutagenicity, Ames/micronucleus/aberration tests
Assay: CCRIS mutagenicity studies

ClC(Cl)=C(Cl)Cl
mutagenic call (End Point: IN VITRO CHROMOSOMAL ABERRATIONS, Test System: CHINESE HAMSTER OVARY CELLS, Metabolic Activation: NONE): inactive; negative
mutagenic call (End Point: IN VITRO CHROMOSOMAL ABERRATIONS, Test System: CHINESE HAMSTER OVARY CELLS, Metabolic Activation: RAT, LIVER, S-9, AROCLOR 1254): inactive; negative
mutagenic call (End Point: IN VITRO CHROMOSOMAL ABERRATIONS, Test System: CHL/IU CELLS, Metabolic Activation: NONE): inactive; negative
mutagenic call (End Point: IN VITRO CHROMOSOMAL ABERRATIONS, Test System: CHO CELLS, Metabolic Activation: NONE): inactive; negative
mutagenic call (End Point: IN VITRO CHROMOSOMAL ABERRATIONS, Test System: CHO CELLS, Metabolic Activation: RAT, LIVER, S-9, AROCLOR 1254): inactive; negative
mutagenic call (End Point: IN VITRO MICRONUCLEUS, Test System: CHL/IU CELLS, Metabolic Activation: NONE): inactive; negative
mutagenic call (Test System: AMES SALMONELLA TYPHIMURIUM, Strain/Indicator: TA98, Metabolic Activation: HAMSTER, LIVER, S-9, AROCLOR 1254, Method: PREINCUBATION): inactive; negative
mutagenic call (Test System: AMES SALMONELLA TYPHIMURIUM, Strain/Indicator: TA98, Metabolic Activation: NONE, Method: PREINCUBATION): inactive; negative
mutagenic call (Test System: AMES SALMONELLA TYPHIMURIUM, Strain/Indicator: TA98, Metabolic Activation: NONE, Method: STANDARD PLATE): inactive; negative
mutagenic call (Test System: AMES SALMONELLA TYPHIMURIUM, Strain/Indicator: TA98, Metabolic Activation: RAT, LIVER, S-9, AROCLOR 1254, Method: PREINCUBATION): inactive; negative
mutagenic call (Test System: AMES SALMONELLA TYPHIMURIUM, Strain/Indicator: TA98, Metabolic Activation: RAT, LIVER, S-9, AROCLOR, Method: STANDARD PLATE): inactive; negative
mutagenic call (Test System: AMES SALMONELLA TYPHIMURIUM, Strain/Indicator: TA100, Metabolic Activation: HAMSTER, LIVER, S-9, AROCLOR 1254, Method: PREINCUBATION): inactive; negative
mutagenic call (Test System: AMES SALMONELLA TYPHIMURIUM, Strain/Indicator: TA100, Metabolic Activation: HAMSTER, LIVER, S-9, SODIUM PHENOBARBITAL, Method: STANDARD PLATE (SEALED PLATE)): inactive; negative
mutagenic call (Test System: AMES SALMONELLA TYPHIMURIUM, Strain/Indicator: TA100, Metabolic Activation: MOUSE, LIVER, S-9, SODIUM PHENOBARBITAL, Method: STANDARD PLATE (SEALED PLATE)): inactive; negative
mutagenic call (Test System: AMES SALMONELLA TYPHIMURIUM, Strain/Indicator: TA100, Metabolic Activation: NONE, Method: BAG VAPORIZATION): inactive; negative
mutagenic call (Test System: AMES SALMONELLA TYPHIMURIUM, Strain/Indicator: TA100, Metabolic Activation: NONE, Method: PREINCUBATION): inactive; negative
mutagenic call (Test System: AMES SALMONELLA TYPHIMURIUM, Strain/Indicator: TA100, Metabolic Activation: NONE, Method: SPOT): active; positive
mutagenic call (Test System: AMES SALMONELLA TYPHIMURIUM, Strain/Indicator: TA100, Metabolic Activation: NONE, Method: STANDARD PLATE): inactive; negative
mutagenic call (Test System: AMES SALMONELLA TYPHIMURIUM, Strain/Indicator: TA100, Metabolic Activation: NONE, Method: STANDARD PLATE (SEALED PLATE)): inactive; negative
mutagenic call (Test System: AMES SALMONELLA TYPHIMURIUM, Strain/Indicator: TA100, Metabolic Activation: RAT, KIDNEY, MICROSOMES AND RAT, LIVER, GLUTATHIONE AND GLUTATHIONE TRANSFERASE, Method: PREINCUBATION): active; positive
mutagenic call (Test System: AMES SALMONELLA TYPHIMURIUM, Strain/Indicator: TA100, Metabolic Activation: RAT, LIVER, S-9, AROCLOR 1254, Method: BAG VAPORIZATION): inactive; negative
mutagenic call (Test System: AMES SALMONELLA TYPHIMURIUM, Strain/Indicator: TA100, Metabolic Activation: RAT, LIVER, S-9, AROCLOR 1254, Method: PREINCUBATION): inactive; negative
mutagenic call (Test System: AMES SALMONELLA TYPHIMURIUM, Strain/Indicator: TA100, Metabolic Activation: RAT, LIVER, S-9, AROCLOR, Method: STANDARD PLATE): inactive; negative
mutagenic call (Test System: AMES SALMONELLA TYPHIMURIUM, Strain/Indicator: TA100, Metabolic Activation: RAT, LIVER, S-9, SODIUM PHENOBARBITAL, Method: STANDARD PLATE (SEALED PLATE)): inactive; negative
mutagenic call (Test System: AMES SALMONELLA TYPHIMURIUM, Strain/Indicator: TA102, Metabolic Activation: MOUSE, LIVER, S-9, SODIUM PHENOBARBITAL, Method: STANDARD PLATE (SEALED PLATE)): inactive; negative
mutagenic call (Test System: AMES SALMONELLA TYPHIMURIUM, Strain/Indicator: TA102, Metabolic Activation: NONE, Method: STANDARD PLATE (SEALED PLATE)): inactive; negative
mutagenic call (Test System: AMES SALMONELLA TYPHIMURIUM, Strain/Indicator: TA102, Metabolic Activation: S-9, Method: STANDARD PLATE): inactive; negative
mutagenic call (Test System: AMES SALMONELLA TYPHIMURIUM, Strain/Indicator: TA104, Metabolic Activation: MOUSE, LIVER, S-9, SODIUM PHENOBARBITAL, Method: STANDARD PLATE (SEALED PLATE)): inactive; negative
mutagenic call (Test System: AMES SALMONELLA TYPHIMURIUM, Strain/Indicator: TA104, Metabolic Activation: NONE, Method: STANDARD PLATE (SEALED PLATE)): inactive; negative
mutagenic call (Test System: AMES SALMONELLA TYPHIMURIUM, Strain/Indicator: TA1535, Metabolic Activation: HAMSTER, LIVER, S-9, AROCLOR 1254, Method: PREINCUBATION): inactive; negative
mutagenic call (Test System: AMES SALMONELLA TYPHIMURIUM, Strain/Indicator: TA1535, Metabolic Activation: MOUSE, LIVER, S-9, SODIUM PHENOBARBITAL, Method: STANDARD PLATE (SEALED PLATE)): inactive; negative
mutagenic call (Test System: AMES SALMONELLA TYPHIMURIUM, Strain/Indicator: TA1535, Metabolic Activation: NONE, Method: PREINCUBATION): inactive; negative
mutagenic call (Test System: AMES SALMONELLA TYPHIMURIUM, Strain/Indicator: TA1535, Metabolic Activation: NONE, Method: STANDARD PLATE (SEALED PLATE)): inactive; negative
mutagenic call (Test System: AMES SALMONELLA TYPHIMURIUM, Strain/Indicator: TA1535, Metabolic Activation: RAT, LIVER, S-9, AROCLOR 1254, Method: PREINCUBATION): inactive; negative
mutagenic call (Test System: AMES SALMONELLA TYPHIMURIUM, Strain/Indicator: TA1537, Metabolic Activation: HAMSTER, LIVER, S-9, AROCLOR 1254, Method: PREINCUBATION): inactive; negative
mutagenic call (Test System: AMES SALMONELLA TYPHIMURIUM, Strain/Indicator: TA1537, Metabolic Activation: NONE, Method: PREINCUBATION): inactive; negative
mutagenic call (Test System: AMES SALMONELLA TYPHIMURIUM, Strain/Indicator: TA1537, Metabolic Activation: RAT, LIVER, S-9, AROCLOR 1254, Method: PREINCUBATION): inactive; negative
mutagenic call (Test System: AMES SALMONELLA TYPHIMURIUM, Strain/Indicator: TA2638, Metabolic Activation: S-9, Method: STANDARD PLATE): inactive; negative
mutagenic call (Test System: AMES SALMONELLA TYPHIMURIUM, Strain/Indicator: UTH8413, Metabolic Activation: NONE, Method: STANDARD PLATE): inactive; negative
mutagenic call (Test System: AMES SALMONELLA TYPHIMURIUM, Strain/Indicator: UTH8413, Metabolic Activation: RAT, LIVER, S-9, AROCLOR, Method: STANDARD PLATE): inactive; negative
mutagenic call (Test System: AMES SALMONELLA TYPHIMURIUM, Strain/Indicator: UTH8414, Metabolic Activation: NONE, Method: STANDARD PLATE): inactive; negative
mutagenic call (Test System: AMES SALMONELLA TYPHIMURIUM, Strain/Indicator: UTH8414, Metabolic Activation: RAT, LIVER, S-9, AROCLOR, Method: STANDARD PLATE): inactive; negative
mutagenic call (Test System: Ames Salmonella typhimurium, Strain/Indicator: TA98, Metabolic Activation: None, Method: Gas exposure method): inactive; negative (two experiments)
mutagenic call (Test System: Ames Salmonella typhimurium, Strain/Indicator: TA98, Metabolic Activation: Rat, Liver, S9, Sodium phenobarbital and 5,6-benzoflavone (10%), Method: Gas exposure method): inactive; negative (two experiments)
mutagenic call (Test System: Ames Salmonella typhimurium, Strain/Indicator: TA100, Metabolic Activation: None, Method: Gas exposure method): inactive; negative (two experiments)
mutagenic call (Test System: Ames Salmonella typhimurium, Strain/Indicator: TA100, Metabolic Activation: Rat, Liver, S9, Sodium phenobarbital and 5,6-benzoflavone (10%), Method: Gas exposure method): inactive; negative (two experiments)
mutagenic call (Test System: Ames Salmonella typhimurium, Strain/Indicator: TA1535, Metabolic Activation: None, Method: Gas exposure method): active; positive (two experiments)
mutagenic call (Test System: Ames Salmonella typhimurium, Strain/Indicator: TA1535, Metabolic Activation: Rat, Liver, S9, Sodium phenobarbital and 5,6-benzoflavone (10%), Method: Gas exposure method): active; positive (two experiments)
mutagenic call (Test System: Ames Salmonella typhimurium, Strain/Indicator: TA1537, Metabolic Activation: None, Method: Gas exposure method): inactive; negative (two experiments)
mutagenic call (Test System: Ames Salmonella typhimurium, Strain/Indicator: TA1537, Metabolic Activation: Rat, Liver, S9, Sodium phenobarbital and 5,6-benzoflavone (10%), Method: Gas exposure method): inactive; negative (two experiments)
mutagenic call (Test System: CHO/HGPRT, Strain/Indicator: CHO/GIEMSA, Metabolic Activation: NONE, Method: STANDARD PLATE): inactive; negative
mutagenic call (Test System: CHO/HGPRT, Strain/Indicator: CHO/GIEMSA, Metabolic Activation: RAT, LIVER, S-9, AROCLOR 1254, Method: STANDARD PLATE): inactive; negative
mutagenic call (Test System: E. COLI, Strain/Indicator: WP2 (PKM101), Metabolic Activation: S-9, Method: STANDARD PLATE): inactive; negative
mutagenic call (Test System: E. COLI, Strain/Indicator: WP2 UVRA (PKM101), Metabolic Activation: S-9, Method: STANDARD PLATE): inactive; negative
mutagenic call (Test System: E. coli, Strain/Indicator: WP2uvrA/pKM101, Metabolic Activation: None, Method: Gas exposure method): inactive; negative (two experiments)
mutagenic call (Test System: E. coli, Strain/Indicator: WP2uvrA/pKM101, Metabolic Activation: Rat, Liver, S9, Sodium phenobarbital and 5,6-benzoflavone (10%), Method: Gas exposure method): inactive; negative (two experiments)
mutagenic call (Test System: MOUSE LYMPHOMA, Strain/Indicator: L5178Y (TK+/TK-), Metabolic Activation: NONE, Method: SUSPENSION/PLATE): inactive; negative
mutagenic call (Test System: MOUSE LYMPHOMA, Strain/Indicator: L5178Y (TK+/TK-), Metabolic Activation: RAT, LIVER, S-9, AROCLOR 1254, Method: SUSPENSION/PLATE): inactive; negative
